In PubChem BioAssay AID1963985 (Molecular Pharmacology Branch, DTP, NCI, 2024):

System: 252836-082-R-J2-PDC tumor spheroids, viability
Assay: Anticancer human tumor 252836-082-R-J2-PDC patient-derived head and neck squamous cell carcinoma cell line growth inhibition [PI3K]
Conditions: spheroids with HUVEC and MSC; for viability, T/C: stronger effect = lower value
Text: Combinatorial screen of targeted agents with the PI3K inhibitors inavolisib, alpelisib, duvelisib, and copanlisib in multi-cell type tumor spheroids
A high-throughput screen of multi-cell type tumor spheroids was designed to identify active combinations of targeted small molecules and PI3K pathway inhibitors. Complex spheroids include a stromal component modeled by human endothelial cells (HUVEC) and fibroblasts modeled by human mesenchymal stem cells (MSCs). The concentration ranges selected for each drug and investigational agent were based upon clinically achievable concentrations if the clinical Cmax of the agent was known.
Compounds. The drugs and investigational agents: inavolisib (NSC800729), alpelisib (NSC765974), duvelisib (NSC772469), copanlisib (NSC816437), ipatasertib (NSC767898), afuresertib (NSC778305), talazoparib (NSC767125), sapanisertib (NSC764658), selumetinib (NSC741078), tovorafenib (DAY101, NSC766906), vemurafenib (NSC761431), ravoxertinib (NSC781343), sotorasib (NSC818433), MRTX1133 (NSC 836407), abemaciclib (NSC 768073), palbociclib (NSC758247), venetoclax (NSC 766270), SY5609 (NSC837396), enzalutamide (NSC755605), and darolutamide (NSC825331), were obtained from the National Cancer Institute (NCI) Developmental Therapeutics Program Chemical Repository. The FDA-approved anticancer drug set is available from the NCI Developmental Therapeutics Program. […] The stock solutions were prepared in dimethyl sulfoxide (DMSO, Sigma-Aldrich, St. Louis, MO, cat. D2650) at 800-fold the tested concentration and stored at -70 degrees C prior to their use. All drugs and investigational agents were tested over a range starting from a high concentration at or near the clinical Cmax and decreasing in half-log increments. If the clinical Cmax for an agent had not been determined, the highest concentration tested was 10 microM.
Cell Culture. All cells were maintained in an incubator at 37 degrees C and 5% CO2 with 95% humidity. The PDC lines were cultured according to standard operating procedures established by the NCI PDMR (https://pdmr.cancer.gov/sops/default.htm). All PDCs were thawed and cultured in Matrigel-coated flasks prepared with a working solution of 1X Ham's F-12 nutrient mix, without supplementation (Invitrogen, Waltham, MA, cat. 11765054), 100 U/mL penicillin-streptomycin (Invitrogen, cat. 15140122), and 2.5% Matrigel (Corning Inc., Corning, NY, cat. 354248) for the first three passages. The 354836-022-R-J1-PDC, 475296-252-R-J1-PDC, and 997726-040-R-J2-PDC lines were cultured in 6A media, which includes advanced DMEM/F-12 (Thermo Fisher Scientific, cat. 12634028), 10 mM HEPES (Thermo Fisher Scientific, cat. 15630080), 1X GlutaMAX supplement (Thermo Fisher Scientific, cat. 35050061), 0.1 mg/mL primocin (InvivoGen, San Diego, CA, cat. ant-pm-2), 10% defined fetal bovine serum, heat inactivated (HyClone Laboratories Inc., Logan, UT, cat. SH30070.03HI), 50% L-WRN conditioned media (ATCC, cat. CRL-3276), 1.25 mM N-Acetyl-L-cysteine (Sigma-Aldrich, cat. A9165), 10 mM nicotinamide (Sigma-Aldrich, cat. N0636), 1X B-27 supplement (Thermo Fisher Scientific, cat. 17504044), 1X N-2 supplement (Thermo Fisher Scientific, cat. 17502048), and 10 microM Y-27632 dihydrochloride (Tocris Bioscience, Bristol, United Kingdom, cat. 1254). The 624824-186-R-J2-PDC line was cultured in 6C/Colon 1B media, which includes all 6A media components plus 50 ng/mL human EGF recombinant protein (Thermo Fisher Scientific, cat. PHG0311). […]
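Note: spheroids exposed to agents for seven days before readout.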
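Throughout, for viability, T/C: percent of vehicle DMSO control viability so 100% = untreated growth.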

With `CC(C)n1nc(-c2ccc3oc(N)nc3c2)c2c(N)ncnc21` + CC(Nc1ncnc2nc[nH]c12)c1cc2cccc(Cl)c2c(=O)n1-c1ccccc1 the IC50 (curve of first compound, second compound 0.0316 µM) was 0.0475 µM, the IC50 (curve of first compound, second compound 0.1 µM) was 0.0371 µM and the IC50 (curve of first compound, second compound 0.316 µM) was 0.0341 µM. It also gave an IC50 (curve of first compound, second compound 1 µM) of 0.0325 µM, an IC50 (curve of first compound, second compound 3.16 µM) of 0.0215 µM and an IC50 (curve of first compound, second compound 10 µM) of 0.0111 µM. For the same compound, the viability, T/C (second compound 0.0316 µM, first compound 0.000316 µM) was 91.7%, the viability, T/C (second compound 0.0316 µM, first compound 0.001 µM) was 93.5% and the viability, T/C (second compound 0.0316 µM, first compound 0.00316 µM) was 89.5%. For the same compound, the viability, T/C (second compound 0.0316 µM, first compound 0.01 µM) was 95.5%, the viability, T/C (second compound 0.0316 µM, first compound 0.0316 µM) was 65.6% and the viability, T/C (second compound 0.0316 µM, first compound 0.1 µM) was 21.7%. The viability, T/C (second compound 0.1 µM, first compound 0.000316 µM) was 94.1%, the viability, T/C (second compound 0.1 µM, first compound 0.001 µM) was 97.9% and the viability, T/C (second compound 0.1 µM, first compound 0.00316 µM) was 71.1%. For the same compound, the viability, T/C (second compound 0.1 µM, first compound 0.01 µM) was 77.5%, the viability, T/C (second compound 0.1 µM, first compound 0.0316 µM) was 55.1% and the viability, T/C (second compound 0.1 µM, first compound 0.1 µM) was 24.2%. For the same compound, the viability, T/C (second compound 0.316 µM, first compound 0.000316 µM) was 95.3%, the viability, T/C (second compound 0.316 µM, first compound 0.001 µM) was 79% and the viability, T/C (second compound 0.316 µM, first compound 0.00316 µM) was 83.5%. The viability, T/C (second compound 0.316 µM, first compound 0.01 µM) was 87.4%, the viability, T/C (second compound 0.316 µM, first compound 0.0316 µM) was 52% and the viability, T/C (second compound 0.316 µM, first compound 0.1 µM) was 22.4%. The viability, T/C (second compound 1 µM, first compound 0.000316 µM) was 96%, the viability, T/C (second compound 1 µM, first compound 0.001 µM) was 88.6% and the viability, T/C (second compound 1 µM, first compound 0.00316 µM) was 83.5%. The viability, T/C (second compound 1 µM, first compound 0.01 µM) was 69.8%, the viability, T/C (second compound 1 µM, first compound 0.0316 µM) was 50.8% and the viability, T/C (second compound 1 µM, first compound 0.1 µM) was 22.7%. The viability, T/C (second compound 3.16 µM, first compound 0.000316 µM) was 79.2%, the viability, T/C (second compound 3.16 µM, first compound 0.001 µM) was 76.9% and the viability, T/C (second compound 3.16 µM, first compound 0.00316 µM) was 78.5%. It also gave a viability, T/C (second compound 3.16 µM, first compound 0.01 µM) of 64.2%, a viability, T/C (second compound 3.16 µM, first compound 0.0316 µM) of 42.8% and a viability, T/C (second compound 3.16 µM, first compound 0.1 µM) of 22%. The viability, T/C (second compound 10 µM, first compound 0.000316 µM) was 74.1%, the viability, T/C (second compound 10 µM, first compound 0.001 µM) was 60% and the viability, T/C (second compound 10 µM, first compound 0.00316 µM) was 68.1%. For the same compound, the viability, T/C (second compound 10 µM, first compound 0.01 µM) was 47%, the viability, T/C (second compound 10 µM, first compound 0.0316 µM) was 39.4% and the viability, T/C (second compound 10 µM, first compound 0.1 µM) was 18%.
For `CCN1CCN(Cc2ccc(Nc3ncc(F)c(-c4cc(F)c5nc(C)n(C(C)C)c5c4)n3)nc2)CC1`, the viability, T/C (compound 0.00316 µM) was 99.2% [middle of 4 runs], the viability, T/C (compound 0.01 µM) was 91.3% [middle of 4 runs] and the viability, T/C (compound 0.0316 µM) was 94.5% [middle of 4 runs]. For the same compound, the viability, T/C (compound 0.1 µM) was 95.2% [middle of 4 runs], the viability, T/C (compound 0.316 µM) was 91.5% [middle of 4 runs] and the IC50 (curve of compound) was over 1 µM.
